Laboratory results taken from patent US20090311227A1, “Composition” (Danisco A/S, priority 2006, published 2009).

Experiments:
[1] = tested on: rats with visceral hypersensitivity induced by the butyrate; experiment: CRD test, role of CB2 and MOR receptors in NCFM-induced analgesia (antagonists) in butyrate-treated rats; format: in vivo, rat; conditions: for effect on NCFM-induced analgesia: butyrate-treated rats receiving NCFM 10^9 CFU/day 15 days, antagonist given peritoneally 30 min before CRD (AM630, naloxone methiodide 2 mg/kg); for effect on pain perception in control rats: control rats with butyrate-induced visceral hypersensitivity, no NCFM, AM630 or naloxone methiodide 2 mg/kg, 30 min before CRD
Experimental: Male Sprague-Dawley rats (Charles River, l'Arbresle, France) weighing 175-200 g were used in this study. Rats were maintained in laboratory conditions for 1 week before experiment. The animals were housed 5 per cage with food and water available ad libitum. All studies were performed in accordance with the proposal of the committee for Research and Ethical Issues of the International Association for the Study of Pain (Zimmermann M, Pain. 1983; 16:109-110). Great care was taken, particularly with regard to housing conditions, to avoid or minimize discomfort to the animals.
For each enema, a catheter (2-mm Fogarty catheter) was placed in the colon at 7 cm from the anus, and the animals received 1 ml of 200 mM of sodium butyrate at neutral pH (pH6.9) twice daily for 3 days. Healthy animals received saline.
Nociception in the animals was assessed by measuring the intracolonic pressure required to induce a behavioral response during colorectal distension (CRD) due to the inflation of a balloon introduced in the colon. This response was characterized by an elevation of the hind part of the animal body and clearly visible abdominal contraction corresponding to the severe contractions (Al Chaer, gastro 2000; Tarrerias, pain 2002; Bourdu et al., 2005). Briefly, rats were anesthetized with volatile anaesthesia (2% isoflurane), the balloon (prepared as previously described in Bourdu & al, 2005) was inserted intrarectally in a minimally invasive manner to 7 cm from the anus, and the catheter was taped to the base of the tail. After 5 minutes, rats were placed in the middle of a 40×40-cm Plexiglas box and the catheter was connected to an electronic barostat apparatus (Synectics Visceral Stimulator; Medtronic, Boulogne-Billancourt, France).
Four groups of animals treated with butyrate were used (n=10/group). Two groups were treated once a day during fifteen days by gastric gavage, 10^9 CFU of NCFM strain and the two other groups of butyrate-treated animals received CarboxyMethyl Cellulose (CMC) by the same route and during the same time. NCFM strain was resuspended in 0.5% CMC (CarboxyMethyl Cellulose, Sigma). Butyrate instillations began 7 days after the first gavage for three days. Colonic hypersensitivity was determined 14 days after the after beginning of oral treatment thus 7 days after colonic instillations. […]
(§1) All experiments were performed in a blind manner by the same experimenter using the block method. Results are expressed as mean±SEM of raw data. Results of CRD testing were analysed using one-way analysis of variance (ANOVA) followed of a Bonferroni post-hoc test to compare several treatments. […]

[2] = tested on: rats with colonic hypersensitivity induced by butyrate; experiment: CRD test, probiotic co-administered with suboptimal morphine in rats with butyrate-induced colonic hypersensitivity; format: in vivo, rat; conditions: butyrate-treated rats
Experimental: Male Sprague-Dawley rats (Charles River, l'Arbresle, France) weighing 175-200 g were used in this study. Rats were maintained in laboratory conditions for 1 week before experiment. The animals were housed 5 per cage with food and water available ad libitum. All studies were performed in accordance with the proposal of the committee for Research and Ethical Issues of the International Association for the Study of Pain (Zimmermann M, Pain 1983; 16:109-110). Great care was taken, particularly with regard to housing conditions, to avoid or minimize discomfort to the animals. […]
Nociception in the animals was assessed by measuring the intracolonic pressure required to induce a behavioral response during colorectal distension (CRD) due to the inflation of a balloon introduced in the colon. […]
Four groups of animals treated with butyrate were used (n=10/group). […] Colonic hypersensitivity was determined 14 days after the after beginning of oral treatment thus 7 days after colonic instillations. […]
as §1

[3] = tested on: rats with colonic hypersensitivity induced by butyrate enemas; conditions: rat with visceral hypersensitivity induced by butyrate; known from Bourdu et al; cited from earlier work

COc1ccc(C(=O)c2c(C)n(CCN3CCOCC3)c3cc(I)ccc23)cc1 [AM630]
effect on NCFM-induced analgesia [1]: significantly inhibited | effect on pain perception in control rats [1]: no effect

C=CC[N+]1(C)CC[C@]23c4c5ccc(O)c4O[C@H]2C(=O)CC[C@@]3(O)[C@H]1C5 (stereo partly shown) [NLX, naloxone methiodide]
effect on NCFM-induced analgesia [1]: not | effect on pain perception in control rats [1]: no effect

CN1CC[C@]23c4c5ccc(O)c4O[C@H]2[C@@H](O)C=C[C@H]3[C@H]1C5 [morphine]
pain threshold ([2]; morphine 0.1 mg/kg subcutaneously alone, 30 min before CRD, mean±SEM): 41.5±2.4 | difference on pain threshold vs rats not receiving morphine ([2]; suboptimal dosage of morphine 0.1 mg/kg): No difference | effect on colonic hypersensitivity in CRD test [3]: dose-dependent decrease
